Data reported in patent US20240317708A1, “INHIBITORS OF TRANSGLUTAMINASES” (ZEDIRA GMBH, priority 2021, published 2024).

What was measured:
[1] = Log D shake flask method (octanol / PBS pH 7.4, HPLC); assay type: physicochemical; details: octanol/phosphate-buffered saline (PBS); octanol / PBS pH 7.4, shake flask
Procedure: In order to classify the inventive compounds according to their lipophilicity, Log D values (distribution coefficient) were determined by means of the well-established shake flask method, measuring the partition of a compound between an octanol and phosphate-buffered saline (PBS, pH 7.4) by HPLC.

[2] = molecular target: T1, recombinant human transglutaminase 2 (Homo sapiens, UniProt P21980); assay: Transglutaminase assay (dansylcadaverine incorporation into dimethylcasein, DCC-assay); assay type: biochemical; details: recombinant human TG2 10 nM, dansylcadaverine/dimethylcasein, 37° C.
T1 construct: purchased Zedira T022
T1 sequence (P21980 1-687): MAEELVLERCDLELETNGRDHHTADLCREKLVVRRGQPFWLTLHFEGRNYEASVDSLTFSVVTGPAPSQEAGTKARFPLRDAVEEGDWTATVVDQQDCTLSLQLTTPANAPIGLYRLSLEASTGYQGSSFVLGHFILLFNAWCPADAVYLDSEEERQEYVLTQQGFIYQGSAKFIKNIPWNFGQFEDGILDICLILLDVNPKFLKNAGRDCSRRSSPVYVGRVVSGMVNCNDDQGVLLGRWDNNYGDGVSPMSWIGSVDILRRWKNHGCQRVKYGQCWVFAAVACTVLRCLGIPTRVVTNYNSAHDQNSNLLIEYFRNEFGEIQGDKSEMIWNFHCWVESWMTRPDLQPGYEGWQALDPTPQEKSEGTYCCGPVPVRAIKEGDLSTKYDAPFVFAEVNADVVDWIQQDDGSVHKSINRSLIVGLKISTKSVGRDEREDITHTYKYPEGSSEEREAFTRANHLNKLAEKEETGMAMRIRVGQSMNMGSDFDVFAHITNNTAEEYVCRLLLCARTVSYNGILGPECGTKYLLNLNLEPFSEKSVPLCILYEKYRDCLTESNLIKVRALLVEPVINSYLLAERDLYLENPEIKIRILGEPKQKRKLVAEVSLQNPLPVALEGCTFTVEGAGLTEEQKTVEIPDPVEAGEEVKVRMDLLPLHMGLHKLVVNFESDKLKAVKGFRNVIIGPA
Outline: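 IC50 derived from fluorescence slope between 20 and 30 min (λex 330 nm, λem 500 nm, 37 °C), expressed relative to a 2% DMSO control. Reaction: 10 nM recombinant human TG2, 4 μM dimethylcasein, 16.7 μM dansylcadaverine, 10 mM CaCl2 and glutathione, pH 8.0.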

[3] = Caco-2 permeability assay (CacoReady kit); assay type: in vitro ADME; details: human
Outline: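 Apparent permeability coefficients (Papp) were measured across Caco-2 cell barriers using a ready-to-use kit run per the supplier's protocol. Values serve as a predictor of oral/intestinal bioavailability.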

Row | SMILES | logD [1] | IC50 [2] | Papp [3]
1 | COC(=O)/C=C/CC[C@H](NC(=O)c1oc2ccccc2c1C)C(=O)Nc1cccn(CC(=O)NC2CC3C=CC2C3)c1=O (stereo partly drawn) [III-66, (S,E)-methyl 7-(1-(2-(bicyclo[2.2.1]hept-5-en-2-ylamino)-2-oxoethyl)-2-oxo-1,2-dihydropyridin-3-ylamino)-6-(3-methylbenzofuran-2-carboxamido)-7-oxohept-2-enoate] | 1 to 3 | 25 to 250 nM | 1 to 10 ×10⁻⁶ cm/s
2 | COC(=O)/C=C/CC[C@H](NC(=O)c1oc2ccccc2c1C)C(=O)Nc1cccn(CC(=O)NC2CC3CCC2CC3)c1=O (stereo partly drawn) [III-67, (6S,E)-methyl 7-(1-(2-(bicyclo[2.2.2]octan-2-ylamino)-2-oxoethyl)-2-oxo-1,2-dihydropyridin-3-ylamino)-6-(3-methylbenzofuran-2-carboxamido)-7-oxohept-2-enoate] | 3 to 5 | < 25 nM | 1 to 10 ×10⁻⁶ cm/s
3 | COC(=O)/C=C/CC[C@H](NC(=O)c1oc2ccccc2c1C)C(=O)Nc1cccn(CC(=O)N[C@@H]2C[C@H]3CC[C@]2(C)C3(C)C)c1=O [III-68, (S,E)-methyl 6-(3-methylbenzofuran-2-carboxamido)-7-oxo-7-(2-oxo-1-(2-oxo-2-((1R,2R,4R)-1,7,7-trimethylbicyclo[2.2.1]heptan-2-ylamino)ethyl)-1,2-dihydropyridin-3-ylamino)hept-2-enoate] | 3 to 5 | < 25 nM | 1 to 10 ×10⁻⁶ cm/s
4 | COC(=O)/C=C/CC[C@H](NC(=O)c1oc2ccccc2c1C)C(=O)Nc1cccn(CC(=O)N[C@@H]2C[C@@H]3C[C@H]([C@H]2C)C3(C)C)c1=O [III-69, (S,E)-methyl 6-(3-methylbenzofuran-2-carboxamido)-7-oxo-7-(2-oxo-1-(2-oxo-2-((1R,2R,3R,5S)-2,6,6-trimethylbicyclo[3.1.1]heptan-3-ylamino)ethyl)-1,2-dihydropyridin-3-ylamino)hept-2-enoate] | 3 to 5 | < 25 nM | 1 to 10 ×10⁻⁶ cm/s
5 | COC(=O)/C=C/CC[C@H](NC(=O)c1oc2ccccc2c1C)C(=O)Nc1cccn(CC(=O)NC[C@@H]2CC[C@H]3C[C@@H]2C3(C)C)c1=O [III-71, (S,E)-methyl 7-(1-(2-(((1S,2R,5S)-6,6-dimethylbicyclo[3.1.1]heptan-2-yl)methylamino)-2-oxoethyl)-2-oxo-1,2-dihydropyridin-3-ylamino)-6-(3-methylbenzofuran-2-carboxamido)-7-oxohept-2-enoate] | 3 to 5 | 25 to 250 nM | 1 to 10 ×10⁻⁶ cm/s
6 | CN(C)C(=O)/C=C/CC[C@H](NC(=O)c1cncn1C)C(=O)Nc1cccn(CC(=O)NC2C3CC4CC(C3)CC2C4)c1=O (stereo partly drawn) [III-76, (S,E)-N^7-(1-(2-(2-adamantylamino)-2-oxoethyl)-2-oxo-1,2-dihydropyridin-3-yl)-N^1,N^1-dimethyl-6-(1-methyl-1H-imidazole-5-carboxamido)hept-2-enediamide] | 1 to 3 | 25 to 250 nM | < 1 ×10⁻⁶ cm/s
7 | Cc1c(C(=O)N[C@@H](CC/C=C/C(=O)N(C)C)C(=O)Nc2cccn(CC(=O)NC34CC5CC(C)(CC(C)(C5)C3)C4)c2=O)oc2ccccc12 [III-77, (S,E)-N^7-(1-(2-(3,5-dimethyladamantan-1-amino)-2-oxoethyl)-2-oxo-1,2-dihydropyridin-3-yl)-N^1,N^1-dimethyl-6-(3-methylbenzofuran-2-carboxamido)hept-2-enediamide] | 3 to 5 | 25 to 250 nM | 1 to 10 ×10⁻⁶ cm/s
8 | COC(=O)/C=C/CC[C@H](NC(=O)c1oc2ccccc2c1C)C(=O)Nc1cccn(CC23CC4CC(CC(Br)(C4)C2)C3)c1=O [III-81, (6S, E)-methyl 7-(1-((3-bromo-1-adamantyl)methyl)-2-oxo-1,2-dihydropyridin-3-ylamino)-6-(3-methylbenzofuran-2-carboxamido)-7-oxohept-2-enoate] | 3 to 5 | 250 to 1500 nM | 1 to 10 ×10⁻⁶ cm/s
9 | COC(=O)/C=C/CC[C@H](NC(=O)c1cccnc1)C(=O)Nc1cccn(CC(=O)NC2C3CC4CC(C3)CC2C4)c1=O (stereo partly drawn) [III-83, (S,E)-methyl 7-(1-(2-(2-adamantylamino)-2-oxoethyl)-2-oxo-1,2-dihydropyridin-3-ylamino)-6-(nicotinamido)-7-oxohept-2-enoate] | 3 to 5 | < 25 nM | < 1 ×10⁻⁶ cm/s
10 | COC(=O)/C=C/CC[C@H](NC(=O)c1ccnnc1)C(=O)Nc1cccn(CC(=O)NC2C3CC4CC(C3)CC2C4)c1=O (stereo partly drawn) [III-85, (S,E)-methyl 7-(1-(2-(2-adamantylamino)-2-oxoethyl)-2-oxo-1,2-dihydropyridin-3-ylamino)-7-oxo-6-(pyridazine-4-carboxamido)hept-2-enoate] | 1 to 3 | < 25 nM | < 1 ×10⁻⁶ cm/s

The remaining lines, values ahead:

Row | logD [1] | IC50 [2] | Papp [3] | SMILES
11 | 3 to 5 | < 25 nM | 1 to 10 ×10⁻⁶ cm/s | COC(=O)/C=C/CC[C@H](NC(=O)c1oc2ccccc2c1C)C(=O)Nc1cccn(CC(=O)N[C@H]2C[C@H]3C[C@@H]([C@@H]2C)C3(C)C)c1=O [III-70, (S,E)-methyl 6-(3-methylbenzofuran-2-carboxamido)-7-oxo-7-(2-oxo-1-(2-oxo-2-((1S,2S,3S,5R)-2,6,6-trimethylbicyclo[3.1.1]heptan-3-ylamino)ethyl)-1,2-dihydropyridin-3-ylamino)hept-2-enoate]
12 | 3 to 5 | 25 to 250 nM | 1 to 10 ×10⁻⁶ cm/s | COC(=O)/C=C/CC[C@H](NC(=O)c1oc2ccccc2c1C)C(=O)Nc1cccn(CC(=O)NC23CCCC4CC(CCC42)C3)c1=O (stereo partly drawn) [III-72, (S,E)-methyl 7-(1-(2-(4-homoisotwistane-3-amino)-2-oxoethyl)-2-oxo-1,2-dihydropyridin-3-ylamino)-6-(3-methylbenzofuran-2-carboxamido)-7-oxohept-2-enoate]
13 | 3 to 5 | < 25 nM | 1 to 10 ×10⁻⁶ cm/s | COC(=O)/C=C/CC[C@H](NC(=O)c1oc2ccccc2c1C)C(=O)Nc1cccn(CC(=O)NC23CC4CC5C2C[C@@H]2C[C@H]5C(C4)[C@H]3C2)c1=O [III-73, (S,E)-methyl 7-(1-(2-(diamantane-1-amino)-2-oxoethyl)-2-oxo-1,2-dihydropyridin-3-ylamino)-6-(3-methylbenzofuran-2-carboxamido)-7-oxohept-2-enoate]
14 | 3 to 5 | 25 to 250 nM | 1 to 10 ×10⁻⁶ cm/s | Cc1c(C(=O)N[C@@H](CC/C=C/C(=O)N(C)C)C(=O)Nc2cccn(CC(=O)NC3C4CC5CC(C4)CC3C5)c2=O)oc2ccccc12 (stereo partly drawn) [III-75, (S,E)-N^7-(1-(2-(2-adamantylamino)-2-oxoethyl)-2-oxo-1,2-dihydropyridin-3-yl)-N^1,N^1-dimethyl-6-(3-methylbenzofuran-2-carboxamido)hept-2-enediamide]
15 | 3 to 5 | 250 to 1500 nM | < 1 ×10⁻⁶ cm/s | COC(=O)/C=C/CC[C@H](NC(=O)c1cncn1C)C(=O)Nc1cccn(CC23CC4CC(CC(C4)C2)C3)c1=O [III-78, (S,E)-methyl 7-(1-(1-adamantylmethyl)-2-oxo-1,2-dihydropyridin-3-ylamino)-6-(1-methyl-1H-imidazole-5-carboxamido)-7-oxohept-2-enoate]
16 | 3 to 5 | 250 to 1500 nM | 1 to 10 ×10⁻⁶ cm/s | COC(=O)/C=C/CC[C@H](NC(=O)c1oc2ccccc2c1C)C(=O)Nc1cccn(CC23CC4CC(CC(C4)C2)C3)c1=O [III-79, (S,E)-methyl 7-(1-(1-adamantylmethyl)-2-oxo-1,2-dihydropyridin-3-ylamino)-6-(3-methylbenzofuran-2-carboxamido)-7-oxohept-2-enoate]
17 | 1 to 3 | 250 to 1500 nM | < 1 ×10⁻⁶ cm/s | COC(=O)/C=C/CC[C@H](NC(=O)c1oc2ccccc2c1C)C(=O)Nc1cccn(CC23CC4CC(CC(O)(C4)C2)C3)c1=O [III-80, (6S,E)-methyl 7-(1-((3-hydroxy-1-adamantyl)methyl)-2-oxo-1,2-dihydropyridin-3-ylamino)-6-(3-methylbenzofuran-2-carboxamido)-7-oxohept-2-enoate]
18 | 3 to 5 | 250 to 1500 nM | 1 to 10 ×10⁻⁶ cm/s | COC(=O)/C=C/CC[C@H](NC(=O)c1oc2ccccc2c1C)C(=O)Nc1cccn(CC2C3CC4CC(C3)CC2C4)c1=O (stereo partly drawn) [III-82, (S,E)-methyl 7-(1-(2-adamantylmethyl)-2-oxo-1,2-dihydropyridin-3-ylamino)-6-(3-methylbenzofuran-2-carboxamido)-7-oxohept-2-enoate]
19 | 3 to 5 | < 25 nM | < 1 ×10⁻⁶ cm/s | COC(=O)/C=C/CC[C@H](NC(=O)c1ccncc1)C(=O)Nc1cccn(CC(=O)NC2C3CC4CC(C3)CC2C4)c1=O (stereo partly drawn) [III-84, (S,E)-methyl 6-(isonicotinamido)-7-(1-(2-(2-adamantylamino)-2-oxoethyl)-2-oxo-1,2-dihydropyridin-3-ylamino)-7-oxohept-2-enoate]
